We go through four compounds from patent US20230112958A1, “Smart Drug Delivery System and Pharmaceutical Kit for Dual Nuclear Medical Cytotoxic Theranostics” (SCV-SpezialChemikalienVertrieb GmbH, priority 2019, published 2023).

For one data set, the system named is LNCaP tumor. Also on record: species or system Balb/c mice. The following applies: mouse, in vivo. The protocol: DATA.QS.KuE was labeled with ^68Ga and tested in vivo on LNCaP tumor-carrying Balb/c mice. […] The selectivity of binding was determined by means of competitive co-injection of the PSMA inhibitor PMPA. […] FIGS. 10a and 10b show the maximum-intensity projections from μPET studies with [^68Ga]-PSMA-11 and, respectively, [^68Ga]-DATA.QS.KuE in LNCaP tumor-carrying Balb/c. FIGS. 11a and 11b Showtime-activity curves of [^68Ga]-PSMA-11 and, respectively, [^68Ga]-DATA.QS.KuE. […] In the case of treatment with highly ionizing radionuclides, for example ^177Lu, rather than ^68Ga, DATA.QS.KuE enables a crucial reduction in nephrotoxicity.

A further data set concerns LNCaP cells. The data set is described as follows: CellTiter Blue cytotoxicity assay. It counts as cell-based. The following applies: for IC50: 72 hours incubation, read-out: IC50 (cytotoxic action in vitro). The protocol: In a CellTiter Blue assay, LNCaP cells were incubated with the substance to be studied for 72 hours, and then the IC50 of the compound was determined.
Background: Resazurin is reduced to fluorescent resorufin, in cell work by metabolically active cells.

The next data set concerns the target T1, PSMA (Homo sapiens, UniProt Q04609).
T1 construct: incubated in the wells with the LNCaP cells for 45 min; endogenous in cells; host or cells: LNCaP cells
The data set is described as follows: Cell-based competitive PSMA binding assay on LNCaP cells against reference 68Ga[Ga]PSMA-10. The protocol:
By means of a cell-based assay, the affinity of the target vector-linker units QS.KuE, QS.K.EuE and KuE with a lipophilic linker—analogously to PSMA-617—and the affinity of the substructures NH2.DOTAGA.617.KuE and NH2-DOTAGA.QS.KuE was determined. In addition, the PSMA affinity of the structure MMAE.ValCit.QS.617.KuE which is preferred in accordance with the invention (see scheme 30) was determined.
For the essay, LNCaP cells were pipetted into multiwell plates (Merck Millipore Multiscreen™). The compounds to be analyzed were each admixed with a defined amount or concentration of the reference compound ^68Ga[Ga]PSMA-10 with a known Kd value and incubated in the wells with the LNCaP cells for 45 min. After repeated washing, the cell-bound activity was determined.
In order to determine non-specific binding, all compounds were additionally admixed with an excess of the PSMA inhibitor 2-PMPA (2-(phosphonomethyl)-[…]) and subjected to the same LNCaP assay—as described above.

Like-named read-outs stand apart in the source and are kept apart here. Non-standard residues stand in square brackets, D forms with d. Residues, ends and D or L forms follow the SMILES beside them. *: point of attachment. Dolaproine = CO[C@@H]([C@@H]1CCCN1)[C@@H](C)C(=O)O; Dil = CC[C@H](C)[C@H](NC)[C@@H](CC(=O)O)OC; X1 = C[C@@H](N*)[C@@H](O)c1ccccc1; NMeV = CN[C@H](C(=O)O)C(C)C

T1 sequence (Q04609 whole entry): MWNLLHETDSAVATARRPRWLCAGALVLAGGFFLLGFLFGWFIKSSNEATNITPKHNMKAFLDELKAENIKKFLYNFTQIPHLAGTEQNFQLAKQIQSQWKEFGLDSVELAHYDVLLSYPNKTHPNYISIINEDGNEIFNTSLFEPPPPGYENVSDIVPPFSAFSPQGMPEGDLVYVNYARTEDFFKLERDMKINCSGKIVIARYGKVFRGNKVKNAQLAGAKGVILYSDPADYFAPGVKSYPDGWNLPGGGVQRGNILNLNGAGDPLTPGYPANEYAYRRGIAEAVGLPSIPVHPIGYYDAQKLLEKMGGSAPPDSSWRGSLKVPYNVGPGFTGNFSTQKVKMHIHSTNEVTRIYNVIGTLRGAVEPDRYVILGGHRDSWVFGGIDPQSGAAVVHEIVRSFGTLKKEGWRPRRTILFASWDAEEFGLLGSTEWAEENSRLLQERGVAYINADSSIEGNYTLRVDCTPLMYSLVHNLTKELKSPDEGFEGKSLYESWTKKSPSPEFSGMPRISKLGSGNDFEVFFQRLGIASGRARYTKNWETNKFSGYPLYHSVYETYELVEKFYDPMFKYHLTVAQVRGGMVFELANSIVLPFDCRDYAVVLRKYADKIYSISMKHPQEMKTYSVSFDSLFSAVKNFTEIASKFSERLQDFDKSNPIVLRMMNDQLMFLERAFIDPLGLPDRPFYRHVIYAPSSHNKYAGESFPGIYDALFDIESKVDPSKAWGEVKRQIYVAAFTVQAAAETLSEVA

As for `CN(CC(=O)O)C1(CCCCC(=O)NCCNc2c(NCCCC[C@H](NC(=O)N[C@@H](CCC(=O)O)C(=O)O)C(=O)O)c(=O)c2=O)CN(CC(=O)O)CCN(CC(=O)O)C1` [DATA.QS.KuE], in the data set on LNCaP tumor, the “kidney exposure/dose by comparison with PSMA-11” value is recorded as “considerably lower” and the “tumor enrichment by comparison with PSMA-11” value is reported as “approximately the same”.
For `CC[C@H](C)[C@@H]([C@@H](CC(=O)N1CCC[C@H]1[C@H](OC)[C@@H](C)C(=O)N[C@H](C)[C@@H](O)c1ccccc1)OC)N(C)C(=O)[C@@H](NC(=O)[C@@H](NC)C(C)C)C(C)C` [MMAE, Monomethyl-auristatin E, reference compound] (H-[NMeV]V[Dil][Dolaproine]-X1), the 50% inhibitory concentration (IC50) in the data set with LNCaP cells (Homo sapiens) was determined as 0.29 ± 0.12 nM.
Take `CCC(C)C(C(CC(=O)N1CCCC1C(OC)C(C)C(=O)NC(C)C(O)c1ccccc1)OC)N(C)C(=O)C(NC(=O)C(C(C)C)N(C)C(=O)OCc1ccc(NC(=O)C(CCCNC(N)=O)NC(=O)C(Nc2c(NCC3CCC(C(=O)NC(Cc4ccc5ccccc5c4)C(=O)NCCCCC(NC(=O)NC(CCC(=O)O)C(=O)O)C(=O)O)CC3)c(=O)c2=O)C(C)C)cc1)C(C)C` (stereo not drawn) [MMAE.ValCit.QS.617.KuE]: the “cell cytotoxicity in vitro compared with pure active ingredient MMAE” value with LNCaP cells (72 hours) is reported as “somewhat lower”. In addition, the IC50 in the data set with LNCaP cells was 32.2 ± 5.7 nM. Moreover, on PSMA, the IC50 was 198.1 ± 1.9 nM and the affinity corresponds to a Ki of 162 ± 3.3 nM.
On to `O=C(O)CCC(NC(=O)NC(CCCCNC(=O)C(Cc1ccc2ccccc2c1)NC(=O)C1CCC(CNC(=O)CN2CCN(CC(=O)O)CCN(CC(=O)O)CCN(CC(=O)O)CC2)CC1)C(=O)O)C(=O)O` (stereo not drawn) [PSMA-617, reference compound], for which the inhibition constant Ki on PSMA (LNCaP cells, competition with 68Ga[Ga]PSMA-10, 45 min incubation, calculated from inhibition curves, read-out: Ki (PSMA binding affinities)) was 12.3 ± 3.1 nM. The half-inhibitory concentration (IC50) on PSMA (LNCaP cells, competition with 68Ga[Ga]PSMA-10, 45 min incubation, read-out: IC50 (PSMA binding affinities)) turned out to be 15.1 ± 3.8 nM.

One may read the IC50 as the concentration needed to halve the response being measured. A word on the Ki: it is the equilibrium dissociation constant of an inhibitor or competing ligand from its target.
